Assay results reported in patent US20050191348A1 (priority 2004, published 2005).

Columns and labels:
[1] = tested on: sAPPα; assay: sAPPα release into medium of SH-SY5Y neuroblastoma cells; type: cell-based, human; conditions: SH-SY5Y, 0.1, 1 and 10 μM, 3 h, versus untreated cells
Procedure: (§1) For the experiments, cells were seeded (2×10^6) onto 100-mm plates (for SH-SY5Y cells) or T75 flasks (for PC12 cells) in culture medium supplemented with full serum for 48 h. The cells were replaced with fresh medium containing 0.5% FCS for an additional 24 h (subconfluent culture), and then the experiments were performed in fresh medium containing 0.5% FCS for the indicated time periods at 37° C. After incubation with various drugs, the conditioned media were collected, centrifuged at 3500 g (10 min, 4° C.) to remove cell debris, and the cleared supernatants were concentrated 10-fold by lyophilization.
(vii) Determination of sAPP. Protein concentrations of cell lysates were assayed using Bradford reagent (Sigma Chemical). Equal amounts of volumes of conditioned medium, standardized to lysate protein, were subjected to […], using either the MAbs 22C11 or 6E10 in 50 mM Tris-HCl, pH 7.4, 150 mM NaCl, containing 0.05% Tween 20 and 1% BSA. Immunoreactivity was detected using anti-mouse IgG-conjugated with HRP and an enhanced chemiluminescence method (Amersham, Pharmacia Biotech, UK). Blots were developed for different times to span a linear range of response, and the relative intensity of immunoreactive bands on the exposed films was quantified by computer-assisted densitometry program (Quantity One, Bio-Rad, Hercules, Calif., USA).
It was of interest to determine whether rasagiline and other propargylamine-containing drugs also regulate APP processing. For this purpose, SH-SY5Y neuroblastoma cells were incubated for 3 h without or with 1 μM of various drugs (TV3326 and its S-isomer TV3279, rasagiline and its S-isomer TVP1022, selegiline, aminoindan), and sAPPα was measured in the media as described in Materials and Methods.
(§2) We further characterized, in detail, the effect of rasagiline on APP processing and the signaling pathways that are involved. Thus, SH-SY5Y neuroblastoma cells were incubated for 3 h without or with increasing concentrations of rasagiline (0.1, 1 and 10 μM), and sAPPα was measured in the media as described in Materials and Methods.
For the sAPPα release, SH-SY5Y neuroblastoma cells or PC12 cells were incubated for 3 h without or with increasing concentrations of propargylamine (0.1, 1 and 10 μM), and sAPPα was measured in the media as described in Materials and Methods.

[2] = tested on: Bcl-2 family and PKC isoform mRNA; assay: Gene expression by quantitative real-time RT-PCR in serum-free PC12 cells; type: cell-based, rat; conditions: 1 μM, 24 h, serum-free PC12
Procedure: (vi) Total RNA extraction. PC12 cells were cultured in DMEM containing 5% FCS and 10% horse serum until confluence. At the day of the experiment, the medium was replaced with fresh medium without serum and rasagiline or propargylamine at various concentrations were administered for 24 h. At the end of incubation, the medium was removed and isolation of total RNA was performed, using Tri Reagent™ Isolation reagent. Total RNA was treated with DNase-RNase free (Roche Diagnostics, Mannheim, Germany) for 30 min at 37° C. and subsequently extracted by a round of phenol:chlorophorm:isoamylalcohol (25:24:1), followed by one of chloroform. After precipitation with NaOAc (0.3 M) and ethyl alcohol, the RNA pellet was washed with 80% ethyl alcohol (12,000×g) for 10 min and resuspended in 50-100 μl of diethylpyrocarbonate (DEPC)-treated water and incubated for 5-10 min at 56° C. to facilitate resuspension.
(vi) Reverse transcription (RT) and quantitative real-time RT-PCR. In order to confirm the results obtained with the customized cDNA expression micro-array, 2 μg of total RNA were denatured and reverse transcribed using random hexanucleotides (0.5 μg/μl). Secondary structures of the template and primer (total volume of 16 μl) were opened by incubation for 5 min at 70° C. and immediately cooled on ice. Reaction mix (9 μl) containing reaction buffer, dNTP (0.5 mm each), RNAasin™ RNAase inhibitor (Promega) (25U) and M-MLV reverse transcriptase (200U) was added and samples were incubated at 39° C. for 1 h. For every RNA preparation a negative control was run in parallel consisting of a direct amplification of the RNA sample, omitting the RT step. The samples were transferred to 92° C. for 10 min, in order to deactivate the enzyme, and then cooled to 4° C.
Quantitative real-time PCR, using LightCycler and FastStart DNA Master SYBR Green I ready-to use PCR mix, was performed according to the manufacture's protocol (Roche Diagnostics, Mannheim, Germany). cDNA (40 ng) was amplified in 20 μl total volume. The sequences of the primers and the size of the products are described in Table 1. The results are analyzed on the provided program of the LightCycler. The relative expression level of a given mRNA was assessed by normalizing to the housekeeping gene 18S-rRNA and compared with control values.
In this experiment, we examined whether Bcl-2 family proteins mediate the pro-survival effect of rasagiline, using serum-starved rat pheochromocytoma PC12 cell line as a model of neuronal apoptosis. PC12 cells were maintained in full-serum (control), or in serum-free (SF) media in the absence or presence of various concentrations of rasagiline (0.001, 0.1, 1 and 10 μM) for 3 h or 24 h, and gene expression was measured by quantitative real-time RT-PC. The real-time RT-PCR consists of RNA samples isolated from said PC-12 cells. Each gene expression was normalized to the housekeeping gene, 18S-rRNA, since this transcript was reported to be less susceptible to the influence by external factors.
The effect of propargylamine on Bad and Bax mRNA levels was examined as described in Example 5 above.

[3] = tested on: PC12 cells; assay: Cell death under serum deprivation (apoptotic cell death detection ELISA), PC12; type: cell-based, rat; conditions: PC12, 24 h serum deprivation, significant at 1 and 10 μM
Procedure: Two different neuronal cell lines were used: the rat PC12 and the human neuroblastoma SH-SY5Y cells.
PC12 cells, originated from rat pheochromocytoma, were grown to confluence in T75 flasks containing DMEM (1000 mg/l glucose) and supplemented with 5% FCS, 10% horse serum, and a mixture of 1% of penicillin/streptomycin/nystatin.
(§3) Cell cultures were incubated at 37° C. in a humid 5% CO2-95% air environment. For cell viability assays, cells were treated with various drugs in serum free media containing 0.1% BSA.
(§4) In order to test cell viability, PC12 cells and SH-SY5Y neuroblastoma cels were incubated under serum deprivation and were untreated or treated with rasagiline (0.1. 1 or 10 μM) for 24 hours.

[4] = tested on: sAPPα; assay: sAPPα release into medium of PC12 cells; type: cell-based, rat; conditions: PC12, 0.1, 1 and 10 μM, 3 h
Procedure: as §1
(vii) Determination of sAPP. […] Immunoreactivity was detected using anti-mouse IgG-conjugated with HRP and an enhanced chemiluminescence method (Amersham, Pharmacia Biotech, UK). Blots were developed for different times to span a linear range of response, and the relative intensity of immunoreactive bands on the exposed films was quantified by computer-assisted densitometry program (Quantity One, Bio-Rad, Hercules, Calif., USA).
as §2, with “Methods. […]” for “Methods.”

[5] = tested on: SH-SY5Y neuroblastoma cells; assay: Cell death under serum deprivation (apoptotic cell death detection ELISA), SH-SY5Y; type: cell-based, human; conditions: 24 h serum deprivation, significant at 1 and 10 μM
Procedure: (ii) Cell culture, viability measurements and experimental treatments. Two different neuronal cell lines were used: the rat PC12 and the human neuroblastoma SH-SY5Y cells.
SH-SY5Y neuroblastoma cells were plated in 100-mm culture dishes and cultured in Dulbecco's modified Eagle's medium (DMEM; 4500 mg/l glucose), containing 10% fetal calf serum (FCS) and a mixture of 1% penicillin/streptomycin/nystatin.
as §3
(iii) Measurement of cell death.
as §4
In order to test cell viability, PC12 cells and SH-SY5Y neuroblastoma cels were incubated under serum deprivation and were untreated or treated with propargylamine (0.1. 1 or 10 μM) for 24 hours.

C#CCN [propargylamine] was tested, and the “sAPPα released into the medium” value [1] was “significant, dose-dependent increase in sAPPα”, the Bad gene expression [2] was “restored both Bax and Bad gene expressions to that of full serum level” and the Bax gene expression [2] was “restored both Bax and Bad gene expressions to that of full serum level”. For the same compound, the “cell death induced by serum deprivation” value [3] was “significantly reduced cell death”, the “sAPPα released into the medium” value [4] was “significant, dose-dependent increase in sAPPα” and the “cell death induced by serum deprivation” value [5] was “significantly reduced cell death”.
